Source: US20230158025A1 (UNIVERSITY OF UTAH RESEARCH FOUNDATION, priority 2020, published 2023)
Like-named read-outs stand apart in the source and are kept apart here.

How the values were obtained:
[1] = target: recombinant human GALK1 (Homo sapiens, UniProt P51570); experiment: hGALK1 biochemical activity assay (Kinase-Glo Plus, ATP depletion)
Procedure, shortened: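 Recombinant human or mouse GALK1 (5 nM, with 100 μM galactose, in the added enzyme solution) was run with ATP (35 μM in the substrate solution) in HEPES pH 8.0 buffer. Compounds were tested at 11 1/3-step concentrations from 57.4 μM to 0.97 nM. After 1 h at room temperature, remaining ATP was read by Kinase-Glo Plus luminescence.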

[2] = target: recombinant mouse GALK1 (Mus musculus, UniProt Q9R0N0); experiment: mGALK1 biochemical activity assay (Kinase-Glo Plus, ATP depletion)
recombinant mouse GALK1, sequence (Q9R0N0 whole entry): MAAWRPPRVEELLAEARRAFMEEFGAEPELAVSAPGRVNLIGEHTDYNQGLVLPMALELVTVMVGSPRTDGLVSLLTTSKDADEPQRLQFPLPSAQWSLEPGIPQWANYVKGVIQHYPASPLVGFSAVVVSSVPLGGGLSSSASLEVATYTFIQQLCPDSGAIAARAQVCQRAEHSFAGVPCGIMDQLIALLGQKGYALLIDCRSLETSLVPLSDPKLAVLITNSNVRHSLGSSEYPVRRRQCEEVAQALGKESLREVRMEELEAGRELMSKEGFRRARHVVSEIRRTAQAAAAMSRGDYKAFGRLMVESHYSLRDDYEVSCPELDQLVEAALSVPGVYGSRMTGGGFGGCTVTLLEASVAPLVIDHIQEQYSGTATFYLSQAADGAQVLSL
Procedure, shortened: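 Recombinant GALK1 (5 nM) with 100 μM galactose; GALK1 turnover read as ATP depletion by Kinase-Glo Plus luminescence. Reaction ran 1 h at room temperature before detection reagent was added.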

[3] = target: T1, hGALK1m (Homo sapiens, UniProt P51570, E253A/K252A); experiment: in vitro hGALK1 activity assay of the structure-based optimisation (Example 12, Tables 17-20); format: biochemical; details: for Emax: Tables 18-19, read-out: Max Response (%)
T1 construct: made in house; host or cells: E. coli HMS174
T1 sequence (P51570 whole entry K252A/E253A): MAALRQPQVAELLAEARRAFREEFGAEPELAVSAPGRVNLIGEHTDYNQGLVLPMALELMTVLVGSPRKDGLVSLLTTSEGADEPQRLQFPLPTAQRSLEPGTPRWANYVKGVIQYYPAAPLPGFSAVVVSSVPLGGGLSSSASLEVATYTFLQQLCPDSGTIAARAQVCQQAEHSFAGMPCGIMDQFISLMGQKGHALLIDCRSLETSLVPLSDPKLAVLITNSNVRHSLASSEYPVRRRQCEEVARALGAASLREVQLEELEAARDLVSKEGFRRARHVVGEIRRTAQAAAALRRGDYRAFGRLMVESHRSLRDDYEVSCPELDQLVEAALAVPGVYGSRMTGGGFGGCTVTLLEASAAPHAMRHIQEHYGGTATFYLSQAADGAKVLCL

[4] = PAMPA permeability; details: for Papp: PAMPA, ADME P: PAMPA permeability (class), Tables 17-19, class probably colour-coded, colour lost
[5] = aqueous kinetic solubility
[6] = rat microsomal stability (RLM); details: for Metab. Stabil. (m): microsomal half-life; for half-life: rat, rat liver microsomes
[7] = recombinant human GALK1, Kinase-Glo Plus ATP depletion, read-out: hGALK
[8] = Tables 2-15, 35 μM ATP, 100 μM galactose, 1 h, bracketed figure after some values is undefined and not reported, read-out: mGALK IC50
[9] = recombinant mouse GALK1, Kinase-Glo Plus ATP depletion, read-out: mGALK
[10] = Tables 18-19 and text of Example 12
[11] = Tables 2-15, 35 μM ATP, 100 μM galactose, 1 h, bracketed figure after some values (e.g. −1.2) is undefined and not reported, read-out: hGALK IC50
[12] = Tables 2-15, 35 μM ATP, 100 μM galactose, 1 h, bracketed figure after some values is undefined and not reported
[13] = recombinant mouse GALK1, Kinase-Glo Plus ATP depletion
[14] = Tables 18-20 and text of Example 12

recombinant human GALK1, sequence (P51570 whole entry): as the sequence (P51570 whole entry K252A/E253A) above, with A252K, A253E counted along it

Structure (SMILES) | IC50 [1, 7] | IC50 [2, 8] | IC50 [2, 9] | change of potency versus parent compound (in words) [3] | Emax [3] | IC50 [3, 10] | Perm. (1 × 10^−6 cm/sec) [4] | Papp [4] | Sol. [5] | Metab. Stabil. (m) [6] | half-life [6] | IC50 [1, 11] | hGALK IC50 ([1]; Tables 2-15, 35 μM ATP, 100 μM galactose, 1 h, bracketed figure after some values (e.g. −1.2) is undefined and not reported) | hGALK (μM) ([1]; recombinant human GALK1, Kinase-Glo Plus ATP depletion) | mGALK IC50 [2, 12] | mGALK (μM) [2, 13] | fold decrease of potency versus parent compound ([3]; loss of potency relative to the unsubstituted parent) | IC50 [3, 14]
CC1=C(C(=O)Nc2cc(C(=O)O)ccn2)C(c2ccccc2Cl)N=C(Nc2nc3cccc(C(F)(F)F)c3o2)N1 (stereo not drawn) [Compound 16, 2-(4-(2-chlorophenyl)-6-methyl-2-((7-(trifluoromethyl)benzo[d]oxazol-2-yl)amino)-1,4-dihydropyrimidine-5-carboxamido)isonicotinic acid] | 21.7 µM | 48.5 µM | 48.6 µM | greatly compromised the potencies | 100% | > 15 µM | <1 1 × 10^−6 cm/sec | < 10 ×10⁻⁶ cm/s | 61.135 µg/mL | >30 m | < 10 min |  |  |  |  |  |  | 
CC1=C(C(=O)Nc2cc(C(=O)O)ccn2)C(c2ccccc2Cl)N=C(Nc2nc3cccc(OC(F)(F)F)c3o2)N1 (stereo not drawn) [Compound 21, 2-(4-(2-chlorophenyl)-6-methyl-2-((7-(trifluoromethoxy)benzo[d]oxazol-2-yl)amino)-1,4-dihydropyrimidine-5-carboxamido)isonicotinic acid] |  |  |  | greatly compromised the potencies | 88% | > 15 µM |  | < 10 ×10⁻⁶ cm/s | 47.8 µg/mL | >30 m | < 10 min |  | inactive | in- active | inactive | in- active |  | 
COc1cccc2nc(NC3=NC(c4ccccc4Cl)C(C(=O)Nc4cc(C(=O)O)ccn4)=C(C)N3)oc12 (stereo not drawn) [Compound 22, 2-(4-(2-chlorophenyl)-2-((7-methoxybenzo[d]oxazol-2-yl)amino)-6-methyl-1,4-dihydropyrimidine-5-carboxamido)isonicotinic acid] | 21.7 µM |  |  | greatly compromised the potencies | 80% | > 15 µM | <1 1 × 10^−6 cm/sec | < 10 ×10⁻⁶ cm/s | 65.7 µg/mL | >30 m | < 10 min |  |  |  | inactive | in- active | 3.6 fold | 
CC1=C(C(=O)Nc2cc(C(=O)O)ccn2)C(c2cccc(C(F)(F)F)c2Cl)N=C(Nc2nc3ccc(F)cc3o2)N1 (stereo not drawn) [Compound 51, 2-(4-(2-chloro-3-(trifluoromethyl)phenyl)-2-((6-fluorobenzo[d]oxazol-2-yl)amino)-6-methyl-1,4-dihydropyrimidine-5-carboxamido)isonicotinic acid] | 19.3 µM | 27.3 µM | 27.3 µM | compromised the potency | 97% | 2.4 µM |  | < 10 ×10⁻⁶ cm/s | 70.1 µg/mL | >30 m | < 10 min | 19.3 µM |  |  |  |  |  | 
CC1=C(C(=O)Nc2cc(C(=O)O)ccn2)C(c2cccc(C(N)=O)c2)N=C(Nc2nc3ccc(F)cc3o2)N1 (stereo not drawn) [Compound 76, 2-(4-(3-carbamoylphenyl)-2-((6-fluorobenzo[d]oxazol-2-yl)amino)-6-methyl-1,4-dihydropyrimidine-5-carboxamido)isonicotinic acid] | 7.69 µM | 21.7 µM | 21.7 µM | significantly impaired the potency | 90% | 3.8 µM | <1 1 × 10^−6 cm/sec | < 10 ×10⁻⁶ cm/s | >78 µg/mL | >30 m | < 10 min | 7.69 µM |  |  |  |  |  | 

Continued, values first:

IC50 [1, 7] | IC50 [2, 8] | IC50 [2, 9] | change of potency versus parent compound (in words) [3] | Emax [3] | IC50 [3, 10] | Perm. (1 × 10^−6 cm/sec) [4] | Papp [4] | Sol. [5] | Metab. Stabil. (m) [6] | half-life [6] | IC50 [1, 11] | hGALK IC50 ([1]; Tables 2-15, 35 μM ATP, 100 μM galactose, 1 h, bracketed figure after some values (e.g. −1.2) is undefined and not reported) | hGALK (μM) ([1]; recombinant human GALK1, Kinase-Glo Plus ATP depletion) | mGALK IC50 [2, 12] | mGALK (μM) [2, 13] | fold decrease of potency versus parent compound ([3]; loss of potency relative to the unsubstituted parent) | IC50 [3, 14] | Structure (SMILES)
 | 9.68 µM | 9.68 µM | did not change the potency | 100% | 1 µM | <1 1 × 10^−6 cm/sec | < 10 ×10⁻⁶ cm/s | 57.5 µg/mL | >30 m | < 10 min | 1.93 µM |  |  |  |  |  |  | CC1=C(C(=O)Nc2cc(C(=O)O)ccn2)C(c2ccccc2Cl)N=C(Nc2nc3cccc(Cl)c3o2)N1 (stereo not drawn) [Compound 17, 2-(2-((7-chlorobenzo[d]oxazol-2-yl)amino)-4-(2-chlorophenyl)-6-methyl-1,4-dihydropyrimidine-5-carboxamido)isonicotinic acid]
9.68 µM | 17.2 µM | 17.2 µM |  | 100% | 5.5 µM | <1.3 1 × 10^−6 cm/sec | < 10 ×10⁻⁶ cm/s | 3.5 µg/mL | >30 m | < 10 min |  |  |  |  |  |  |  | CC1=C(C(=O)Nc2cc(C(=O)O)ccn2)C(c2ccccc2Cl)N=C(Nc2nc3c(C)cccc3o2)N1 (stereo not drawn) [Compound 18, 2-(4-(2-chlorophenyl)-6-methyl-2-((4-methylbenzo[d]oxazol-2-yl)amino)-1,4-dihydropyrimidine-5-carboxamido)isonicotinic acid]
0.86 µM | 4.32 µM | 4.32 µM | little effect on the potency | 100% |  | <1 1 × 10^−6 cm/sec | < 10 ×10⁻⁶ cm/s | 40.6 µg/mL | >30 m | < 10 min |  |  |  |  |  |  | 0.258 µM | CC1=C(C(=O)Nc2cc(C(=O)O)ccn2)C(c2ccc(F)cc2Cl)N=C(Nc2nc3ccc(F)cc3o2)N1 (stereo not drawn) [Compound 45, 2-(4-(2-chloro-4-fluorophenyl)-2-((6-fluorobenzo[d]oxazol-2-yl)amino)-6-methyl-1,4-dihydropyrimidine-5-carboxamido)isonicotinic acid]
1.09 µM | 3.85 µM | 3.85 µM | little effect on the potency | 85% |  | <1 1 × 10^−6 cm/sec | < 10 ×10⁻⁶ cm/s | <1 µg/mL | >30 m | < 10 min |  |  |  |  |  |  | 0.345 µM | CC1=C(C(=O)Nc2cc(C(=O)O)ccn2)C(c2ccc(Cl)cc2Cl)N=C(Nc2nc3ccc(F)cc3o2)N1 (stereo not drawn) [Compound 47, 2-(4-(2,4-dichlorophenyl)-2-((6-fluorobenzo[d]oxazol-2-yl)amino)-6-methyl-1,4-dihydropyrimidine-5-carboxamido)isonicotinic acid]
8.63 µM | 21.7 µM | 21.7 µM | compromised the potency | 100% | 3.6 µM |  | < 10 ×10⁻⁶ cm/s | 55.5 µg/mL | >30 m | < 10 min | 8.63 µM |  |  |  |  |  |  | CC1=C(C(=O)Nc2cc(C(=O)O)ccn2)C(c2cccc(Cl)c2Cl)N=C(Nc2nc3ccc(F)cc3o2)N1 (stereo not drawn) [Compound 49, 2-(4-(2,3-dichlorophenyl)-2-((6-fluorobenzo[d]oxazol-2-yl)amino)-6-methyl-1,4-dihydropyrimidine-5-carboxamido)isonicotinic acid]
6.85 µM | 19.3 µM | 19.3 µM |  | 100% | 5.4 µM | <1 1 × 10^−6 cm/sec | < 10 ×10⁻⁶ cm/s | >81 µg/mL | >30 m | < 10 min | 6.85 µM |  |  |  |  |  |  | COc1cccc(C2N=C(Nc3nc4ccc(F)cc4o3)NC(C)=C2C(=O)Nc2cc(C(=O)O)ccn2)c1Cl (stereo not drawn) [Compound 52, 2-(4-(2-chloro-3-methoxyphenyl)-2-((6-fluorobenzo[d]oxazol-2-yl)amino)-6-methyl-1,4-dihydropyrimidine-5-carboxamido)isonicotinic acid]
 | 3.85 µM | 3.85 µM | little impact on the potency | 100% |  |  | < 10 ×10⁻⁶ cm/s | 36.0 µg/mL | >30 m | < 10 min | 0.54 µM |  |  |  |  |  | 0.235 µM | CC1=C(C(=O)Nc2cc(C(=O)O)ccn2)C(c2ccccc2Br)N=C(Nc2nc3ccc(F)cc3o2)N1 (stereo not drawn) [Compound 75, 2-(4-(2-bromophenyl)-2-((6-fluorobenzo[d]oxazol-2-yl)amino)-6-methyl-1,4-dihydropyrimidine-5-carboxamido)isonicotinic acid]
